PMC11719606, “Exploring the Inhibition of Toxoplasma gondii α-Carbonic Anhydrase by Sulfonamides: Insights into Potential Drug Targeting” (International Journal of Molecular Sciences, 2024)

Each compound was assayed against T1, Tg_CA (Toxoplasma gondii, UniProt S8F479) (assay: stopped-flow CO2 hydration, phenol red, Cheng-Prusoff).
T1 construct: gene TGME49_259950; alpha-CA domain, residues 487-830 of an 861-residue protein; E. coli BL21(DE3) codon-plus; about 47 kDa
T1 sequence (S8F479 487-830): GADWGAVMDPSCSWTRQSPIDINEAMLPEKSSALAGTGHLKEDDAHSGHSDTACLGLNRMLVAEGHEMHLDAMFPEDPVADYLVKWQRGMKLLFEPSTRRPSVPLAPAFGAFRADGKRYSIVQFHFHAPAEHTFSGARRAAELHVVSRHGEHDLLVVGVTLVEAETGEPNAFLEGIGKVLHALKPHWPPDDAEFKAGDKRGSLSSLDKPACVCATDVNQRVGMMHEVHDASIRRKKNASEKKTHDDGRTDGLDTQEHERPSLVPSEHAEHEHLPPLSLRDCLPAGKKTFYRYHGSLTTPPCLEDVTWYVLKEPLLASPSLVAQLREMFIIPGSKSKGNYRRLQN
Assay type: biochemical

Question: With `Nc1ccc(S(=O)(=O)NCc2ccc(S(N)(=O)=O)cc2)cc1` [compound 23] as the compound, how does the Ki read?
Answer: The Ki was 93.4 nM.

Question: For `CC1(C)O[C@@H]2[C@@H](CO[C@@]3(COS(N)(=O)=O)OC(C)(C)O[C@@H]23)O1` [TPM, Topiramate], which Ki is on record?
Answer: Its Ki is 720 nM.

Question: How did the Ki turn out when `Nc1ccc(S(=O)(=O)Nc2ccc(S(N)(=O)=O)cc2)cc1` [compound 22] was run?
Answer: The Ki was 91.2 nM.

Question: For `Nc1ccc(S(=O)(=O)NCCc2ccc(S(N)(=O)=O)cc2)cc1` [compound 24], which Ki is on record?
Answer: Its Ki is 204 nM.

Question: Which Ki does the source give for `Cc1ccc(S(N)(=O)=O)cc1` [compound 4] here?
Answer: The Ki was 586 nM.

Question: With `Nc1cc(C(F)(F)F)c(S(N)(=O)=O)cc1S(N)(=O)=O` [compound 11] as the compound, how does the Ki read?
Answer: The Ki was 65.1 nM.

Question: For `Nc1ccc(S(=O)(=O)Nc2nnc(S(N)(=O)=O)s2)cc1` [compound 20], which Ki is on record?
Answer: The Ki was 17.8 nM.

Question: Which Ki does the source give for `NS(=O)(=O)c1ccc(CO)cc1` [compound 16] here?
Answer: The Ki was 91.6 nM.

Question: `NS(=O)(=O)c1ccc(O)cc1` [compound 15] was tested. Which Ki did it give?
Answer: Its Ki is 76.4 nM.

Question: How did the Ki turn out when `CC(=O)N=c1sc(S(N)(=O)=O)nn1C` [MZA, Methazolamide] was run?
Answer: Its Ki is 24.7 nM.

Question: How did the Ki turn out when `NS(=O)(=O)c1nnc(NS(=O)(=O)c2ccccc2)s1` [BZA, Benzolamide] was run?
Answer: Its Ki is 62.1 nM.

Question: With `Cc1ccc(-c2cc(C(F)(F)F)nn2-c2ccc(S(N)(=O)=O)cc2)cc1` [CLX, Celecoxib] as the compound, how does the Ki read?
Answer: Its Ki is 508 nM.

Question: With `Nc1nnc(S(N)(=O)=O)s1` [compound 13] as the compound, how does the Ki read?
Answer: The Ki was 57.5 nM.

Question: For `NS(=O)(=O)c1ccc(C(=O)O)cc1` [compound 18], which Ki is on record?
Answer: The Ki was 85.3 nM.

Question: How did the Ki turn out when `Nc1nccc(Nc2ccc(S(N)(=O)=O)cc2)n1` [compound 19] was run?
Answer: The Ki was 72.5 nM.

Question: Which Ki does the source give for `NS(=O)(=O)c1cc(Cl)c(Cl)c(S(N)(=O)=O)c1` [DCP, Dichlorphenamide] here?
Answer: Its Ki is 77.5 nM.

Question: How did the Ki turn out when `NS(=O)(=O)c1ccc(S(=O)(=O)Nc2cccc3c(Cl)c[nH]c23)cc1` [IND, Indisulam] was run?
Answer: The Ki was 84 nM.

Question: `Cc1onc(-c2ccccc2)c1-c1ccc(S(N)(=O)=O)cc1` [VLX, Valdecoxib] was tested. Which Ki did it give?
Answer: Its Ki is 426 nM.

Question: With `Nc1cc(Cl)c(S(N)(=O)=O)cc1S(N)(=O)=O` [compound 12] as the compound, how does the Ki read?
Answer: The Ki was 73.8 nM.

Question: `O=C1NS(=O)(=O)c2ccccc21` [SAC, Saccharin] was tested. Which Ki did it give?
Answer: Its Ki is 8450 nM.

Question: For `NS(=O)(=O)c1ccc(CCO)cc1` [compound 17], which Ki is on record?
Answer: Its Ki is 263 nM.

Question: `Cn1nc(S(N)(=O)=O)sc1=N` [compound 14] was tested. Which Ki did it give?
Answer: The Ki was 61 nM.

Question: For `NS(=O)(=O)Cc1noc2ccccc12` [ZNS, Zonisamide], which Ki is on record?
Answer: The Ki was 912 nM.

Question: Which Ki does the source give for `NS(=O)(=O)c1cc2c(cc1Cl)NCNS2(=O)=O` [HCT, Hydrochlorothiazide] here?
Answer: Its Ki is 839 nM.

Question: `NCc1ccc(S(N)(=O)=O)cc1` [compound 5] was tested. Which Ki did it give?
Answer: The Ki was 739 nM.

Question: `CCN[C@H]1CN(CCCOC)S(=O)(=O)c2sc(S(N)(=O)=O)cc21` [BRZ, Brinzolamide] was tested. Which Ki did it give?
Answer: Its Ki is 77.8 nM.

Question: Which Ki does the source give for `NS(=O)(=O)c1ccc(CCNS(=O)(=O)c2ccc([N+](=O)[O-])cc2CO)cc1` [compound 21] here?
Answer: The Ki was 94.7 nM.

Question: With `NS(=O)(=O)c1cc(Cl)cc(Cl)c1O` [compound 10] as the compound, how does the Ki read?
Answer: Its Ki is 578 nM.
